Assay results from patent publication US20090241221A1, “TANDEM REAPEAT DNA CONSTRUCTS PRODUCING PROTEINS THAT ATTACK PLANT PATHOGENIC VIRUSES, FUNGI, AND BACTERIA BY DISRUPTING TRANSCRIPTION FACTORS ESSENTIAL FOR REPLICATION THEREOF IN PLANTS” (priority 2008, published 2009).
“Also recorded” adds a separate entry of the source.

Tests used:
mammalian retroviruses = conditions: millimolar concentrations; measured by release of reverse transcriptase; cited from earlier work
Mammalian rotaviruses = conditions: millimolar concentrations; cited from earlier work
[1] = test system: Arabidopsis thaliana ars27A mutant; conditions: in comparison with the wild type; cited from earlier work
[2] = test system: SV40-transformed Balb 3T3 cells; conditions: cited from earlier work
[3] = test system: tomato spotted wilt virus; conditions: tomato and tobacco plants; cited from earlier work
Arabidopsis thaliana [4] = conditions: cited from earlier work
HSV-2 = conditions: tissue culture and animals; cited from earlier work
Orobache ramosa = conditions: Arabidopsis thaliana pre-treated with FU; cited from earlier work
HSV-1 = conditions: tissue culture and animals; cited from earlier work
virally infected cells = assay: Apoptosis of virally infected cells; format: cell-based; conditions: for fate of viruses and host cells: HIV-1, Hepatitis C and numerous other viruses as well as the host cells
Description: APOPTOSIS. Apoptosis is a morphological pattern of cell injury and an important mode of cell death (Robbins, Pathological Basis of Disease, 1999, 6th Ed). Apoptosis shares and overlaps common mechanisms with necrosis. […] This form of cell death is designed to eliminate defective, unwanted and damaged cells. For example, the inventors have shown that cells infected by Herpes Simplex Virus 1 (HSV; labialis) and HSV-2 genitalis are destroyed together with the host cells that they infected by apoptosis when exposed to pyridine carboxylates (Fernandez-Pol, Anticancer Res. 2002). […] Thus, the inventors believes that when host cells of animals or plants are infected by pathogenic viruses, unless the treatment is extremely quickly, the host cells and the virus will be destroyed. In fact, host cells defective, mutated, and reservoirs for the novo synthesis of viruses are unwanted host cells and must be eliminated in many instances to allow the survival of the organism.

recombinant MPS-1 = biological target: T1, recombinant MPS-1 (Homo sapiens, UniProt P42677); assay: Gel shift assay and Zn65 removal with recombinant MPS-1; format: biochemical; conditions: for zinc dependent binding of recombinant MPS-1 to DNA: gel shift assays
T1 construct: made in house
Description: MPS-1 is a ubiquitous tumor marker and cell growth stimulator and is described in detail in the inventors' U.S. Pat. No. 5,243,041. MPS-1 has one zinc finger domain of the type CCCC. […] This is detected by a change in the electrophoretic mobility of MPS-1 under non-denaturing conditions. These experiments indicate that picolinic acid and derivatives should remove zinc and denature various types of zinc finger, zinc ring proteins, or other types of ZF motifs whether known or heretofore undiscovered, including animal or plant viral proteins such as nucleocapsid proteins of retrovirus or the nucleocapsid proteins of Geminivirus. Furthermore, the inventors have determined that any chemical compound, whether known or heretofore undiscovered, that will remove the zinc (or other metal) and denature the proteins or that will form a ternary complex (protein-zinc-chelator) can be effective as an antiviral agent, with nontoxic effects, provided that the agent conforms with certain specific structural requirements.

[5] = test system: SV40 transformed BALB-3T3 cells; conditions: 3 mM picolinic acid; cited from earlier work
[6] = test system: iron incorporation into the cells; assay: Kinetic and radioisotopic studies of iron in cells; format: cell-based
Arabidopsis thaliana [7] = conditions: cited from earlier work; remark: listed apart in the source
[8] = test system: Rice suspension cells and leaves; conditions: cited from earlier work
[9] = test system: normal cells (BALB 3T3, NRK, WI-348); assay: Growth control and cell cycle arrest in normal cells
transformed cells = conditions: Kirsten sarcoma virus transformed cells; Flow Microfluorometric Analysis of DNA; cited from earlier work
NRK cells = NRK cells treated with picolinic acid; cited from earlier work

For `O=C(O)CN(CCN(CC(=O)O)CC(=O)O)CC(=O)O` [EDTA], the “disintegration of viral membranes” value (mammalian retroviruses) is listed as “partial disintegration of viral membranes” and the “disintegration of viral membranes” value (Mammalian rotaviruses) is listed as “partial disintegration of the viral membranes”.
In the case of `COS(C)(=O)=O` [MMS, Methyl Methane Sulphonate], the “growth of ars27A seedlings” value [1] is listed as “strongly inhibited”.
In the case of `NC(=O)c1cccnc1` [Nicotinamide, reference compound], the “effect on cell growth or apoptosis” value ([2]; 48 h) is listed as “no effect on cell growth or apoptosis”.
For `NC(=O)c1ncn([C@@H]2O[C@H](CO)[C@@H](O)[C@H]2O)n1` [Ribavirin], the “efficacy against tomato spotted wilt virus” value [3] is given as “successfully used; also recorded: most efficient in tomato plants”.
In the case of `CCCCc1ccc(C(=O)O)nc1` [fusaric acid, 5-butyl picolinic acid], the “concentrations that reduced root growth” value (Arabidopsis thaliana [4]; also rapid transient membrane hyperpolarization, then large depolarization) is listed as > 500 µM, the “concentration eliciting plant defense responses without toxic effects” value (Arabidopsis thaliana [4]; in vivo) is listed as 100 nM and the “efficacy against viral infection” value (HSV-2) is listed as “effective”. The “germination of the angiosperm parasite” value (Orobache ramosa) was “inhibited”, the “efficacy against viral infection” value (HSV-1) was “effective” and the “fate of viruses and host cells” value (virally infected cells) was “Death by apoptosis”. The “removal of zinc (Zn65) from the CCCC zinc finger of MPS-1” value (recombinant MPS-1) was “remove radioactive Zn65 from MPS-1; also recorded: remove zinc” and the “zinc dependent binding of recombinant MPS-1 to DNA” value (recombinant MPS-1) was “inhibit”.
In the case of `O=C(O)c1ccccn1` [picolinic acid, 2-pyridine carboxylic acid], the “mitochondrial cytochrome c release” value [5] is listed as “released cytochrome c”, the “sensitivity of transformed cells to apoptosis” value [2] is listed as “extremely sensitive to apoptosis” and the “incorporation of iron into the cells” value [6] is listed as “inhibits incorporation of iron into the cells”. The “removal of radioiron from the cells” value [6] was “effectively removes radioiron from the cells”, the “marker defense genes PR-1, PR-2 and PDF1.2” value (Arabidopsis thaliana [7]; dose-dependent and time dependent) was “all induced” and the “salicylic acid-dependent and jasmonic acid/ethylene-dependent pathways” value (Arabidopsis thaliana [7]; in vivo) was “strongly activated”. For the same molecule, the “hypersensitive response (HR)” value (Arabidopsis thaliana [7]; including the oxidative burst and cell death) was “induced HR”, the apoptosis ([8]; Rice suspension cells and leaves) was “showed apoptosis” and the reactive oxygen species ([8]; rice suspension cells, Ca^2+-dependent) was “induced reactive oxygen species (ROS)”. The “hypersensitive response (HR)” value ([8]; rice) was “can elicit the hypersensitive response (HR)”, the “toxic effects in normal cells” value ([9]; longer exposure (one week)) was “most normal cells showed no toxic effects; also recorded: no toxic effects” and the “cell cycle arrest of normal cells” value ([9]; short-term treatment) was “arrests normal cells in G1 (Go)”. For the same molecule, the “phase of cell cycle arrest” value (transformed cells) was “G1 phase”, the “fate of viruses and host cells” value (virally infected cells) was “Death by apoptosis” and the “fate of virally infected cells” value (virally infected cells; by apoptosis) was “killed”. The “removal of zinc (Zn65) from the CCCC zinc finger of MPS-1” value (recombinant MPS-1) was “remove radioactive Zn65 from MPS-1; also recorded: remove zinc”, the “zinc dependent binding of recombinant MPS-1 to DNA” value (recombinant MPS-1) was “inhibit” and the “potency of prostaglandin E1 in elevating cyclic AMP” value (NRK cells) was “two to five times more potent”.
For `O=C(O)CN(CCOCCOCCN(CC(=O)O)CC(=O)O)CC(=O)O` [EGTA], the “disintegration of viral membranes” value (mammalian retroviruses) is given as “partial disintegration of viral membranes” and the “disintegration of viral membranes” value (Mammalian rotaviruses) is given as “partial disintegration of the viral membranes”.
